Experimental data from a melting point compilation (Tetko et al.; mined from patent text by program, amines drawn as free bases though some values may be those of a salt).

Row | SMILES | melting point [°C]
1 | COc1ccc(S(=O)(=O)N2C(=O)C(CC(=O)N3CCN(c4ccccn4)CC3)(c3ccccc3Cl)c3cc(C)ccc32)c(OC)c1 (stereo not drawn) | 239
2 | Cc1nn(C)c(O)c1C(=O)c1ccc(Cl)c(C)c1Cl | 149 to 150
3 | c1ccc(C(c2ccccc2)c2ccncc2)cc1 | 124 to 126
4 | S=C1CN=C(c2ccccc2Cl)c2cc(CCc3ccc(-c4ccccc4)cc3)sc2N1 | 187 to 189
5 | N[C@@H](CCC1CCCCC1)C(=O)O | 265 to 266
6 | CCN1C(=O)CNCc2cc(OC)c(N)cc21 | 69 to 73
7 | CN1CCC(C2(O)c3ccccc3CCn3cccc32)CC1 (stereo not drawn) | 175 to 177
8 | O=C(NCc1ccccc1[N+](=O)[O-])C1Cc2ccccc2N1S(=O)(=O)c1ccc(-c2ccc(F)cc2F)cc1 (stereo not drawn) | 99 to 102
9 | COc1ncnc(-c2cc([N+](=O)[O-])c(C#N)cc2F)c1C | 129 to 131
10 | CCCCCCCCc1sc(NC(=O)c2cc3ccccc3n2CCC(=O)OCC)nc1-c1cc(OC)c(Cl)cc1OC | 59 to 61
11 | CCOCn1cnc2c1c(=O)n(C)c(=O)n2C | 110 to 112
12 | O=Cc1c2ccccc2c(CCCl)c2ccccc12 | 158 to 159
13 | CCCC(=O)c1cc2nc(CO)n(C)c2cc1C | 142
14 | O=c1ncc(Cl)cn1Cc1ccccc1 | 197
15 | O=C(NO)[C@@H](CC(=O)N1CCOCC1)NS(=O)(=O)c1ccc(Oc2ccccc2)cc1 | 161 to 163
16 | NC(=O)C1CCCc2c(C(=O)c3ccccc3)cccc21 (stereo not drawn) | 146 to 148
17 | Cc1ccc2ccc(N3C(=O)c4ccccc4C3OC(=O)N3CCN(C)CC3)nc2n1 (stereo not drawn) | 190
18 | CCCCn1cnc2c1c(=O)n(CCCCC(C)=O)c(=O)n2C | 79 to 80
19 | CCc1c(C(=O)C(N)=O)c2c(N)cccc2n1Cc1ccccc1 | 140 to 144

Row | SMILES | melting point [°C]
20 | NS(=O)(=O)c1cc2[nH]c(-c3nc4cc(Cl)c(S(N)(=O)=O)cc4[nH]3)nc2cc1Cl | 360
21 | CC(=O)C1(O)CCC2C3CCC4=CC(=O)CCC4(C)C3C(Cl)CC21C (stereo not drawn) | 193 to 196
22 | Cc1c(Br)c2c(c(C)c1NC(=O)CC(C)(C)C)C(c1ccc(C(C)C)cc1)CS2(=O)=O (stereo not drawn) | 211 to 213
23 | O=Cc1ccccc1-c1noc2ccccc12 | 149
24 | COc1cc2[nH]c(=O)c(=O)n(C)c2cc1[N+](=O)[O-] | 356
25 | O=C(O)CCc1ccccc1OCCC(c1ccccc1)(c1ccccc1)c1ccccc1 | 118 to 120
26 | CCOC(=O)c1cn(CCF)c2nc(N3CCN(C(C)=O)CC3)c(F)cc2c1=O | 183 to 185
27 | NC(=O)C(CCCCCCCCNC(=O)c1ccccc1O)CC(=O)O (stereo not drawn) | 123 to 125
28 | CC1=C(C#CC2=C(/C=C/C(C)=C/C(=O)O)CCC2)C(C)(C)CCC1 | 173 to 174
29 | CCC(=O)NC1C=CCCCC1 (stereo not drawn) | 84
30 | Cc1c(C(=O)c2ccc(F)cc2)n(N2C(=O)c3ccccc3C2=O)c2ccccc12 | 227 to 228
31 | O=C(NN1CCCCC1)c1nc(-c2ccc(Cl)cc2Cl)n(-c2ccc(Cl)cc2)c1Br | 182 to 183
32 | C=CC=CCC1CC(NC(=O)C(F)(F)F)C(O)C(C)O1 (stereo not drawn) | 111 to 112
33 | CC1CC(=O)c2c(Cl)c(F)cc3c(=O)c(C(=O)O)cn1c23 (single isomer, unassigned; (-)) | 294 to 296
34 | Nc1nc2c(s1)CN(C(=S)NC(=O)c1ccccc1)CC2 | 158 to 160
35 | C[C@]1(COC(=O)N(c2ccc(Cl)cc2)c2ccc(Cl)cc2)Cn2cc([N+](=O)[O-])nc2O1 | 200 to 201
36 | CC(C)NC(=O)c1coc2ccccc2c1=O | 104 to 106
37 | Cc1ccc(S(=O)(=O)n2ccc3c(C=O)cccc32)cc1 | 144 to 146
38 | Cc1ccc2c3c(ccc2n1)OCC(CN1CCC2(CC1)C(=O)NCN2c1ccccc1)O3 (stereo not drawn) | 199 to 201

Row | SMILES | melting point [°C]
39 | O=S(=O)(Nc1cc(Cl)c(Cl)c(Cl)c1)c1cc(S(=O)(=O)Nc2cc(Cl)c(Cl)c(Cl)c2)c2cc(O)ccc2c1 | 164 to 166
40 | CC(C)CCOc1c(Sc2ccc(C(C)(C)C)cc2)c(Sc2ccccc2N)c(OCCC(C)C)c2c1C(=N)NC2=N | 198 to 199
41 | O=C1c2ccccc2CN1CC1CCN(CCc2c[nH]c3ccccc23)CC1 | 225 to 230
42 | CCOC(=O)c1cc(S)cc(S)c1 | 49 to 51
43 | COC(=O)C(O)(c1cc(F)cc(F)c1)c1cc(F)cc(F)c1 | 113 to 114
44 | CCCn1c(=S)[nH]c2ccsc2c1=O | > 230
45 | CN1Cc2c(C(=O)N3CCN(C(=O)c4ncn5c4CN(C)C(=O)c4cc(Cl)ccc4-5)CC3)ncn2-c2ccc(Cl)cc2C1=O | 367 to 374
46 | CCOc1cc(Cc2cnc(N)nc2N)cc2c1OC1(C=C2Br)CCC1 | 213 to 214
47 | CN1CCN(C(=O)[C@H](CC(N)=O)Nc2ccc(OCc3ccccc3)cc2OCc2ccccc2)CC1 | 83 to 85
48 | CCC(C(C)=CC(CNC(=O)c1cccnc1)=NO)[N+](=O)[O-] (stereo not drawn) | 105 to 108
49 | CCCC(Oc1cncc(Cl)c1)C(=O)O (stereo not drawn) | 89 to 91
50 | Cc1cc(Cc2cc(C)cc(C(C)(C)C)c2O)c(O)c(-n2nc3ccccc3n2)c1 | 167
51 | O=C(O)c1c[nH]c(=S)n1C1Cc2cc(F)c(F)cc2C1 | 233 to 234
52 | Cc1cc(C(C)(C)CCl)c(C)nn1 | 57 to 59
53 | CCOc1cc(N)ccc1-c1ccc(-c2ccc(N)cc2OCC)o1 | 192 to 193
54 | CCCCCCCCCCCCCCCCCCNC(=O)c1ccccc1 | 85 to 87
55 | Nc1ccc(C2CCSCC2)c(F)c1 | 96 to 98
56 | Cc1cnc(N2N=C(c3ccc([N+](=O)[O-])cc3)c3cc4c(cc3CC2C)OCO4)s1 (stereo not drawn) | 193 to 195

Now from value to compound:

Row | melting point [°C] | SMILES
57 | 192 to 194 | Cc1ccn(-c2ccc(C(=O)O)c(C(F)(F)F)c2)n1
58 | 141 to 143 | O=c1nc(Cl)cc(-c2ccccc2)n1-c1ccccc1
59 | 184 to 186 | COC(=O)c1cccc(NC(=O)Oc2ccc([N+](=O)[O-])cc2)c1
60 | 134 | COc1ccc(C2CCCN(C(=O)C(F)(F)F)C2)cc1NC(=O)NOCc1ccccc1 (stereo not drawn)
61 | 61 to 62 | O=[N+]([O-])c1cc(CO)ccc1Br
62 | 217 to 218 | COc1ccc(CNc2nnc(Cl)c3ccc([N+](=O)[O-])cc23)cc1Cl
63 | 107 to 108 | O=Cc1c(Cl)cc(Cl)cc1OCc1ccc(F)cc1
64 | 219 | CCOc1ccc2c(c1)n(C1CCCCC1)c(=O)n2S(=O)(=O)c1ccc(C(=O)NC(C)(C)CC)cc1OC
65 | 192 to 193 | COc1ccc2c(cc3n2Cc2ccccc2-3)n1
66 | 169 to 171 | Cc1cc(Cl)nnc1-c1cccc([N+](=O)[O-])c1
67 | 229 to 231 | C#Cc1cc(O)cc2nc(-c3ccc(O)cc3)oc12
68 | 86 to 88 | O=C(NCCSCc1ccccc1)c1cnccc1C(F)(F)F
69 | 100 to 104 | OCc1ncc(-c2ccc(Cl)cc2)o1
70 | 94 | CSc1nc(SC)nc(-c2cc(C(C)(C)C)c(O)c(C(C)(C)C)c2)n1
71 | 197 to 199 | COc1ccc(-c2ccc(C(=O)Nc3ccc4nc(CN5CCCC5)ccc4c3)cc2)cc1
72 | 77 to 80 | CC1(C)CC(S(=O)(=O)Cc2cnccc2C(F)(F)F)=NO1
73 | 117 to 119 | CNC(=O)n1nc(Oc2ccc(C(F)(F)F)cc2[N+](=O)[O-])c(C)c1C
74 | 56 to 58 | O=C(C(=Cc1cccc(C(F)(F)F)c1)C(=O)C1CC1)C1CC1
75 | 183 to 185 | CCCCc1c(Cl)nc(N)nc1-c1ccccc1
76 | > 235 | O=C(O)c1ccc2c(Cl)ccnc2c1
77 | 127 to 129 | FC(F)(F)c1cccc(C=Cc2ccccc2)c1
78 | 139 to 140 | COc1ccc(-c2nncn2-c2ccccc2)cc1
79 | 207 to 208 | O=c1nc(-c2cccc(CN3CCC(c4ccccc4)CC3)n2)sc2ccccc12
80 | 144 to 146 | COCCc1sc2ncnc(N)c2c1-c1ccc(N)cc1

Row | melting point [°C] | SMILES
81 | 154 to 156 | CCOC(=O)C(=O)CSc1ccc(-c2ccccc2)cc1
82 | 184 | Cc1cc(-c2ccc(C#N)cc2)c(C#N)n1Cc1cnc(Cl)c(CO)c1
83 | 179 to 180 | COc1c(C2CCN(CCCCNC(=O)c3sc(-c4ccc(C(F)(F)F)cc4)nc3CO)CC2)ccc2c1CCCC2
84 | 127 | CCC(=O)Oc1cc(OC)cc(OC)c1C(=O)C=Cc1cccs1
85 | 214 | Cc1cc(C2CCC(c3ccc(O)cc3)CC2)ccc1O (stereo not drawn)
86 | 113 to 114 | CCn1ccc2c(C)nc3c(Br)cnn3c21
87 | 163 to 165 | CC(C(=NO)c1ccc(Cl)cc1Cl)c1cccnc1 (stereo not drawn)
88 | 170 to 171 | CCCc1nc2c(N)nc3cc(OCc4ccoc4)ccc3c2s1
89 | 156 to 157 | CC(C)(C)OC(=O)Nc1ccc(-c2ccc(F)cc2)cc1NC(=O)CC(=O)c1sccc1C#N
90 | 75 to 78 | CC(CC(=O)O)C(=O)c1ccc(F)cc1 (stereo not drawn)
91 | 168 to 170 | Oc1cccc(-n2cnc3cc(C(F)(F)F)ccc32)c1
92 | 73.5 to 75.5 | N#Cc1cccc(CN2CCc3cc(Cl)ccc32)c1
93 | 169 to 170 | COc1ccc(CSc2nc(O)cc(C(F)(F)F)n2)cc1
94 | 154 to 157 | CNC(=O)N1CC(Oc2ccc(C(F)(F)F)cc2)C1
95 | 272 | O=C1NCc2cc(C(O)c3cccnc3)ccc2N1 (stereo not drawn)
96 | 203 to 205 | Clc1ccc(-c2ncc3nc(Cl)cc(Cl)n23)cc1
97 | 123 to 124 | CCOC(=O)/C=C/c1cc(-c2ccccc2)nn1Cc1ccc(Cl)cc1Cl
98 | 178 | CCCC1=C(C(=O)OCC)C(c2ccccc2C)c2c[nH]nc2N1 (stereo not drawn)
99 | 82 | Oc1ccc(Oc2ccc(Cl)cc2Cl)cc1
100 | 80 to 81 | CCc1c(CCNC(=O)C(F)(F)F)ccc(OC)c1OC
101 | 97.5 to 99.5 | C=CC(=O)N1Cc2cc(OC)ccc2SC(Cl)C1 (stereo not drawn)
102 | 151 to 153 | ON=C(Cc1ccccc1)c1ccccn1
103 | 70 to 71 | COCCNC(=O)c1cccc(-c2cccc3cc(Cc4ccc(F)c(OC)c4)sc23)c1
